# Assay results: patent publication US5916920A, “3-substituted Bicyclo[3.1.0]hexane-6-carboxylic acids” (Eli Lilly and Company, priority 1996, dated 1999)
# Key:
# [1] = mouse elevated plus maze model; assay type: in vivo
# [2] = mouse conditioned active avoidance response model; assay type: in vivo
# Text: (Pfeiffer & Jenney, Ann. N.Y. Acad. Sci., 66:[…], 1957; Maffii, J. Pharm. Pharmacol., 11: 129-139, 1959; Cook & Weidley, Ann; N.Y. Acad. Sci., 66: […], 1957; Janke, Handbook of Experimental Pharmacology, Vol. 55/I, New York: Plenum Press, 1978).
# [3] = system: metabotropic glutamate receptors; assay: selective displacement of 1S,3R-ACPD-sensitive [^3 H]glutamate binding to rat brain cell membranes; settings: crude membranes of rat forebrain
# Method: The binding of [^3 H]glutamate was conducted with crude membranes of rat forebrain as described by Schoepp and True. Schoepp and True, Neuroscience Lett., 145, 100-104 (1992) and Wright et al., J. Neurochemisty 63: 938-945 (1994).
compound,measurement,setting,value
"Cc1cccc(C[C@@H]2C[C@H]3[C@H](C(=O)O)[C@H]3[C@]2(N)C(=O)O)c1 (relative stereo) [Example 4, 1SR,2SR,3SR,5RS,6SR-Amino-3-((3-methyl)benzyl)bicyclo[3.1.0]hexane-2,6-dicarboxylic acid]",anxiolytic effect in the mouse elevated plus maze model,[1],anxiolytic effect
"N[C@@]1(C(=O)O)[C@H](Cc2ccc(F)c(F)c2F)C[C@H]2[C@H](C(=O)O)[C@H]21 (relative stereo) [Example 25, 1SR,2SR,3SR,5RS,6SR-2-Amino-3-((2,3,4-trifluoro)benzyl)bicyclo[3.1.0]hexane-2,6-dicarboxylic acid]",neuroleptic properties in the mouse conditioned active avoidance response model,[2],neuroleptic properties
"Mixture of 1SR,2SR,3RS,5RS,6SR-2-amino-3-(3-phenylpropyl)bicyclo[3.1.0]-hexane-2,6-dicarboxylic acid and 1SR, 2RS, 3RS, 5RS, 6SR-2-amino-3-(3-phenylpropyl)bicyclo[3.1.0]hexane-2,6-dicarboxylic acid [Example 1]",IC50,[3],320 nM
